Earlier results in patent publication US20230381158A1, “COMPOSITIONS FOR THE TREATMENT OF NON-ALCOHOLIC FATTY LIVER DISEASE AND NON-ALCOHOLIC STEATOHEPATITIS” (LUMOS PHARMA, INC., priority 2018, published 2023).
Where a name gives a salt, the structure may show the parent alone. Ends that are not written are not given here.

How the values were obtained:
Type 2 diabetic patients = Type 2 diabetic patients on metformin and/or a sulphonylurea agent, 12 week treatment
NAFLD patients = conditions: 24 week study, 50 NAFLD patients, versus placebo
subjects = conditions: 12 subjects treated for 24 weeks
adult NASH patients = conditions: 1 year treatment, adult NASH patients refractory to dietary intervention
[1] = tested on: adults NASH without diabetes and cirrhosis; conditions: 800 mg/day, versus placebo
[2] = five studies
NASH patients = conditions: 300 mg/day for more than 2 years, Japan
[3] = long-term or high-dose use; several conflicting results exist
[4] = FDA warning
GH/IGF-1 axis = conditions: in vivo
[5] = compared with the control group

N[C@@H](CC(=O)N1CCn2c(nnc2C(F)(F)F)C1)Cc1cc(F)c(F)cc1F [sitagliptin]
hepatic steatosis or fibrosis (Type 2 diabetic patients): neither treatment reduced hepatic steatosis or fibrosis
reducing liver fat (NAFLD patients): no better than placebo
fibrosis (subjects): no improvement

vitamin E
TGF-β1 (adult NASH patients): reduced
serum transaminase activities (adult NASH patients): reduced
improvements of NASH histology [1]: superior to placebo
hepatic steatosis [2, 5]: significantly reduced
hepatocellular ballooning [2, 5]: significantly reduced
inflammation [2, 5]: significantly reduced
serum hepatobiliary enzymes [2, 5]: significantly reduced
fibrosis improvement [2]: not confirmed
hepatic fibrosis (NASH patients): can ameliorate hepatic fibrosis
all-cause mortality, prostatic cancer, hemorrhagic stroke [3]: may increase

CCc1ccc(CCOc2ccc(CC3SC(=O)NC3=O)cc2)nc1 (centres unmarked) [pioglitazone]
risk of bladder cancer [4]: may be linked to an increased risk of bladder cancer

CC(C)(N)C(=O)N[C@H](COCc1ccccc1)C(=O)N1CCC2(CC1)CN(S(C)(=O)=O)c1ccccc12 [ibutamoren, ibutamoren mesylate]
GH secretion (obese individuals): enhance GH secretion
lean body mass (obese individuals): increase lean body mass
serum IGF-1 (obese individuals): increase serum IGF-1
amplitude of pulsatile release of endogenous GH (GH/IGF-1 axis): enhances
glucose stimulated insulin secretion (pancreatic […]-cells): does not suppress

ghrelin (GSSFLSPEHQRVQQRKESKKPPAKLQPR; ends and bridges not checked; UniProt Q9UBU3 24-51, looked up) [hormone produced in the gastrointestinal tract that modulates GH]
insulin release from pancreatic […]-cells (pancreatic […]-cells): inhibits insulin release
